± gives the expanded uncertainty stated by the source.
How the values were obtained:
[1] = xn = mol fraction of the nth substance listed; settings: 101.3 kPa, Liquid; for viscosity: Capillary tube (Ostwald / Ubbelohde) method; for speed of sound: Linear variable-path acoustic interferometer; for mass density: Pycnometric method
[2] = refractive index (Na D-line) (dimensionless); xn = mol fraction of the nth substance listed; settings: 101.3 kPa, Liquid, Standard Abbe refractometry

C1COCCO1 [1,4-dioxane] + OCCO
Settings	mass density, 298.15 K [kg/m3]	mass density, 303.15 K [kg/m3]	mass density, 308.15 K [kg/m3]	refractive index, 298.15 K	refractive index, 303.15 K	refractive index, 308.15 K	speed of sound, 298.15 K [m/s]	viscosity, 298.15 K [mPa·s]	viscosity, 303.15 K [mPa·s]	viscosity, 308.15 K [mPa·s]
[1], x1 = 0.1031	1100.6 ± 0.6	1096.6 ± 0.6	1092.8 ± 0.6	–	–	–	1620 ± 3	9.007 ± 0.062	7.262 ± 0.051	5.518 ± 0.04
[1], x1 = 0.2072	1090.6 ± 0.6	1086.4 ± 0.6	1082.4 ± 0.6	–	–	–	1577 ± 3	6.285 ± 0.045	5.149 ± 0.038	4.013 ± 0.03
[1], x1 = 0.3021	1082 ± 0.6	1077.6 ± 0.6	1073.1 ± 0.6	–	–	–	1537 ± 3	4.654 ± 0.035	3.849 ± 0.029	3.044 ± 0.023
[1], x1 = 0.4246	1071.1 ± 0.6	1066.5 ± 0.6	1061.7 ± 0.6	–	–	–	1485 ± 3	3.177 ± 0.024	2.68 ± 0.02	2.181 ± 0.017
[1], x1 = 0.5042	1064.5 ± 0.6	1059.7 ± 0.6	1054.7 ± 0.6	–	–	–	1456 ± 3	2.566 ± 0.019	2.184 ± 0.017	1.802 ± 0.014
[1], x1 = 0.5986	1056.8 ± 0.6	1051.7 ± 0.6	1046.8 ± 0.6	–	–	–	1426 ± 3	2.012 ± 0.015	1.728 ± 0.013	1.444 ± 0.011
[1], x1 = 0.6914	1049.6 ± 0.6	1044.5 ± 0.6	1039.5 ± 0.6	–	–	–	1400 ± 3	1.663 ± 0.013	1.447 ± 0.011	1.229 ± 0.01
[1], x1 = 0.7906	1042.4 ± 0.6	1037.1 ± 0.6	1031.8 ± 0.6	–	–	–	1381 ± 3	1.388 ± 0.011	1.226 ± 0.01	1.063 ± 0.008
[1], x1 = 0.8909	1035.2 ± 0.6	1029.9 ± 0.6	1024.5 ± 0.6	–	–	–	1369 ± 3	1.212 ± 0.01	1.081 ± 0.009	0.949 ± 0.008
[1], x1 = 1	1027.6 ± 0.6	1021.9 ± 0.6	1016.2 ± 0.6	–	–	–	1347 ± 3	1.166 ± 0.009	1.069 ± 0.008	0.984 ± 0.008
[2], x1 = 0.1031	–	–	–	1.4294 ± 0.0011	1.4279 ± 0.0011	1.4262 ± 0.0011	–	–	–	–
[2], x1 = 0.2072	–	–	–	1.4284 ± 0.0011	1.4268 ± 0.0011	1.425 ± 0.0011	–	–	–	–
[2], x1 = 0.3021	–	–	–	1.4275 ± 0.0011	1.4256 ± 0.0011	1.4236 ± 0.0011	–	–	–	–
[2], x1 = 0.4246	–	–	–	1.426 ± 0.0011	1.424 ± 0.0011	1.4219 ± 0.0011	–	–	–	–
[2], x1 = 0.5042	–	–	–	1.4248 ± 0.0011	1.4226 ± 0.0011	1.4204 ± 0.0011	–	–	–	–
[2], x1 = 0.5986	–	–	–	1.4238 ± 0.0011	1.4216 ± 0.0011	1.4193 ± 0.0011	–	–	–	–
[2], x1 = 0.6914	–	–	–	1.423 ± 0.0011	1.4207 ± 0.0011	1.4186 ± 0.0011	–	–	–	–
[2], x1 = 0.7906	–	–	–	1.422 ± 0.0011	1.4196 ± 0.0011	1.4172 ± 0.0011	–	–	–	–
[2], x1 = 0.8909	–	–	–	1.421 ± 0.0011	1.4187 ± 0.0011	1.4163 ± 0.0011	–	–	–	–
[2], x1 = 1	–	–	–	1.4201 ± 0.0011	1.417 ± 0.0011	1.4143 ± 0.0011	–	–	–	–

CCCCN(CCCC)CCCC [tributylamine] + C1COCCO1
Settings	mass density, 298.15 K [kg/m3]	mass density, 303.15 K [kg/m3]	mass density, 308.15 K [kg/m3]	refractive index, 298.15 K	refractive index, 303.15 K	refractive index, 308.15 K	speed of sound, 298.15 K [m/s]	viscosity, 298.15 K [mPa·s]	viscosity, 303.15 K [mPa·s]	viscosity, 308.15 K [mPa·s]
[1], x2 = 0	774.4 ± 0.4	770.1 ± 0.4	766.2 ± 0.4	–	–	–	1261 ± 3	1.36 ± 0.011	1.221 ± 0.01	1.125 ± 0.009
[1], x2 = 0.1201	785.1 ± 0.4	780.9 ± 0.4	776.8 ± 0.4	–	–	–	1253 ± 3	1.245 ± 0.01	1.142 ± 0.009	1.039 ± 0.008
[1], x2 = 0.2122	794.7 ± 0.4	790.2 ± 0.4	785.9 ± 0.4	–	–	–	1254 ± 3	1.19 ± 0.009	1.089 ± 0.009	0.989 ± 0.008
[1], x2 = 0.3072	806 ± 0.5	801.6 ± 0.5	797.1 ± 0.5	–	–	–	1257 ± 3	1.156 ± 0.009	1.059 ± 0.008	0.963 ± 0.008
[1], x2 = 0.4085	820.5 ± 0.5	815.9 ± 0.5	811.4 ± 0.5	–	–	–	1264 ± 3	1.137 ± 0.009	1.044 ± 0.008	0.95 ± 0.008
[1], x2 = 0.5014	836.6 ± 0.5	832.1 ± 0.5	827.5 ± 0.5	–	–	–	1272 ± 3	1.123 ± 0.009	1.032 ± 0.008	0.94 ± 0.008
[1], x2 = 0.5972	856.9 ± 0.5	852.1 ± 0.5	847.4 ± 0.5	–	–	–	1281 ± 3	1.118 ± 0.009	1.026 ± 0.008	0.934 ± 0.007
[1], x2 = 0.6998	884 ± 0.5	879.2 ± 0.5	874.1 ± 0.5	–	–	–	1292 ± 3	1.112 ± 0.009	1.022 ± 0.008	0.933 ± 0.007
[1], x2 = 0.7999	917.9 ± 0.5	912.6 ± 0.5	907.4 ± 0.5	–	–	–	1305 ± 3	1.114 ± 0.009	1.025 ± 0.008	0.936 ± 0.007
[1], x2 = 0.8947	960.6 ± 0.6	955.2 ± 0.6	949.9 ± 0.6	–	–	–	1320 ± 3	1.133 ± 0.009	1.042 ± 0.008	0.952 ± 0.008
[2], x2 = 0	–	–	–	1.4274 ± 0.0011	1.4251 ± 0.0011	1.4226 ± 0.0011	–	–	–	–
[2], x2 = 0.1201	–	–	–	1.4266 ± 0.0011	1.424 ± 0.0011	1.4215 ± 0.0011	–	–	–	–
[2], x2 = 0.2122	–	–	–	1.4259 ± 0.0011	1.4236 ± 0.0011	1.421 ± 0.0011	–	–	–	–
[2], x2 = 0.3072	–	–	–	1.425 ± 0.0011	1.4226 ± 0.0011	1.4201 ± 0.0011	–	–	–	–
[2], x2 = 0.4085	–	–	–	1.4244 ± 0.0011	1.4218 ± 0.0011	1.4196 ± 0.0011	–	–	–	–
[2], x2 = 0.5014	–	–	–	1.4234 ± 0.0011	1.4209 ± 0.0011	1.4184 ± 0.0011	–	–	–	–
[2], x2 = 0.5972	–	–	–	1.4226 ± 0.0011	1.4201 ± 0.0011	1.4174 ± 0.0011	–	–	–	–
[2], x2 = 0.6998	–	–	–	1.4217 ± 0.0011	1.4192 ± 0.0011	1.4168 ± 0.0011	–	–	–	–
[2], x2 = 0.7999	–	–	–	1.421 ± 0.0011	1.4185 ± 0.0011	1.416 ± 0.0011	–	–	–	–
[2], x2 = 0.8947	–	–	–	1.4205 ± 0.0011	1.418 ± 0.0011	1.4154 ± 0.0011	–	–	–	–
